Test results reported in US12509447B2, “Small molecule compound” (Technoderma Medicines Pte Ltd, priority 2019, dated 2025).

Columns and labels:
Format in all cases: biochemical
[1] = target: Tyk2 (Homo sapiens, UniProt P29597); assay: Inhibition of JAK kinase activity, EZ Reader microfluidic phosphorylation of peptide substrate: Tyk2; settings: Tyk2 kinase 1 nM; highest final concentration 10 μM, 1:3 serial dilution, 8 points, duplicates
Summary of the method: (§1)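 Microfluidic mobility-shift assay reading fluorescent peptide substrate and product; kinases at 20 nM (JAK1) or 1 nM (JAK2, JAK3, Tyk2) in pH 7.4 HEPES with 10 mM MgCl2, run at room temperature to 20-30% conversion, then stopped with EDTA. Compounds tested from 10 μM top, 1:3 over 8 points in duplicate; IC50 fitted from % conversion.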

[2] = target: JAK1 (Homo sapiens, UniProt P23458); assay: Inhibition of JAK kinase activity, EZ Reader microfluidic phosphorylation of peptide substrate: JAK1; settings: JAK1 kinase 20 nM; highest final concentration 10 μM, 1:3 serial dilution, 8 points, duplicates
Chain of JAK1 (P23458 whole entry): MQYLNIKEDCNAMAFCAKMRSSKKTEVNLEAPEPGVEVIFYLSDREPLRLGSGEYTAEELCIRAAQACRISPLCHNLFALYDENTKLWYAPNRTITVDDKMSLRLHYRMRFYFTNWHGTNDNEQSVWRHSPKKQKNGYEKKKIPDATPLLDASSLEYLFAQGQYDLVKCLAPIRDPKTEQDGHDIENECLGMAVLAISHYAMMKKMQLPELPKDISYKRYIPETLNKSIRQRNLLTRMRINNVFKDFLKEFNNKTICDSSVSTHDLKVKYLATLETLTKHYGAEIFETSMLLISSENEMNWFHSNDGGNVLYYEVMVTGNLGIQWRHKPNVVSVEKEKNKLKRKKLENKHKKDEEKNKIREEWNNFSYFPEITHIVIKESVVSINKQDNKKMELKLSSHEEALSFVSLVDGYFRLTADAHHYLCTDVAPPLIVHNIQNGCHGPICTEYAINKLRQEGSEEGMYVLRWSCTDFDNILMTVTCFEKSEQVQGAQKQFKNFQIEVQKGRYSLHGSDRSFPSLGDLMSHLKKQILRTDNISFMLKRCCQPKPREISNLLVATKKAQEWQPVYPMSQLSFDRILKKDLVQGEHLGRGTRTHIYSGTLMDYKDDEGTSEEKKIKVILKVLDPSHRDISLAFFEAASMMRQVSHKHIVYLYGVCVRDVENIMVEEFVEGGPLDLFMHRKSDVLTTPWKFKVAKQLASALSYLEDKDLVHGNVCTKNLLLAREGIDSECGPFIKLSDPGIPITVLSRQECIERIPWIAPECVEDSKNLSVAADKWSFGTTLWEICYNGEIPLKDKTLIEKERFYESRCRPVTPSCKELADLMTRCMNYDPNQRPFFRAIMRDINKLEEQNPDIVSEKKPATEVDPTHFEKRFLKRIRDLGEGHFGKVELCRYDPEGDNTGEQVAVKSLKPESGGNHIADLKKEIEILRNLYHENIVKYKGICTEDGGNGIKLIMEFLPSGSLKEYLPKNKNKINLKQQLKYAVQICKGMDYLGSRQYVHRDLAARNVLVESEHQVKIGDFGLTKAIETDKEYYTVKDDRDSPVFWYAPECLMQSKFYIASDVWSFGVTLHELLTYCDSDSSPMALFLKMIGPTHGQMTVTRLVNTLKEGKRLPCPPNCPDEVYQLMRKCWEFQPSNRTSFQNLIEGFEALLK
Summary of the method: as §1

[3] = target: JAK2 (Homo sapiens, UniProt O60674); assay: Inhibition of JAK kinase activity, EZ Reader microfluidic phosphorylation of peptide substrate: JAK2; settings: JAK2 kinase 1 nM; highest final concentration 10 μM, 1:3 serial dilution, 8 points, duplicates
Chain of JAK2 (O60674 whole entry): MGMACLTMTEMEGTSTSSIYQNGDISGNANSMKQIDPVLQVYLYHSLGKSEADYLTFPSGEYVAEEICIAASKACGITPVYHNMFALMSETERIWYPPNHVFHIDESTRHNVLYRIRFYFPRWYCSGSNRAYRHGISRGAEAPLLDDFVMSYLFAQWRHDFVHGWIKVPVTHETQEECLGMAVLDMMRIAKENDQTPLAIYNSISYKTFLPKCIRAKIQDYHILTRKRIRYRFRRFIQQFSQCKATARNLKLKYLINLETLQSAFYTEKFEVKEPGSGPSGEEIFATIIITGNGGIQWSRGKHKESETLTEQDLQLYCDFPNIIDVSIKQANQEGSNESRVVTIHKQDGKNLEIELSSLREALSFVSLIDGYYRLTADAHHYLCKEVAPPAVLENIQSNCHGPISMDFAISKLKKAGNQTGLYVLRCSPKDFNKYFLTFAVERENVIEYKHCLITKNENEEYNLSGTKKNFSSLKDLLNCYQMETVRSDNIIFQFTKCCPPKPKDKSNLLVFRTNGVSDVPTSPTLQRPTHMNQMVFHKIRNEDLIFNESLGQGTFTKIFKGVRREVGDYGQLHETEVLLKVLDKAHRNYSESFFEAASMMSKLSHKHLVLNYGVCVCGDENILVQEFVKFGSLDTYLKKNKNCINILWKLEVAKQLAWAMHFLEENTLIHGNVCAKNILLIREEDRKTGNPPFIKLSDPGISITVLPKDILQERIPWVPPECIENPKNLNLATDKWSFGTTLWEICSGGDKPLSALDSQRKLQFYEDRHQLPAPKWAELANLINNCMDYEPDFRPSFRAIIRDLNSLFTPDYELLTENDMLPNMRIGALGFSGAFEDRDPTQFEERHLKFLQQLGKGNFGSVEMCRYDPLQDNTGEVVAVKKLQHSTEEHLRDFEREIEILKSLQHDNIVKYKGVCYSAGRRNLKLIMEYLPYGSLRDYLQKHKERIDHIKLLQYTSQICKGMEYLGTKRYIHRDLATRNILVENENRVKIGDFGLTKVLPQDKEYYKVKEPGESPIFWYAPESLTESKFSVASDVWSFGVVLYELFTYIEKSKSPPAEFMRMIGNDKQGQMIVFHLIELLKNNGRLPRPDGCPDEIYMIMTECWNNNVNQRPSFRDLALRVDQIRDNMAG
Description: (§2) EZ Reader available from PerkinElmer can be used for detecting the phosphorylation of polypeptide substrates catalyzed by kinases. This device is based on microfluidic separation technology, and can directly detect fluorescence labeled substrates and products. The separation step is achieved in a microfluidic chip by controlling the pressure and electric field intensity. In a kinase experiment, the product conversion rate is generally controlled at 20-30%. This biological assay method is used for identifying the inhibitory effect of the compounds on JAK.
(§3) The compound powder was dissolved in DMSO, sealed and stored in a refrigerator at −20° C. The in-house compound Ref1 was used as a positive control for testing of JAK1, JAK2 and Tyk2, and Ref2 was used as a positive control for testing of JAK3.
(§4) • S2.1. 1M HEPES buffer: 0.5M HEPES free acid and 0.5M HEPES sodium salt are weighed, added into ultrapure water for dissolution, brought to a desired volume, filtered and stored in a refrigerator at 4° C. • S2.2. 40 mM ATP solution: dissolved in a 50 mM HEPES buffer solution, prepared into 40 mM, aliquoted, and cryopreserved in a refrigerator at −20° C. • S2.3. 0.5% Tween 20: 100% Tween 20 was diluted with ultrapure water, and stored in a refrigerator at 4° C. • S2.4. 35% bovine serum albumin: a 35% bovine serum albumin solution is prepared in ultrapure water, aliquoted, and stored in a refrigerator at −20° C. • S2.5. 1M dithiothreitol solution: dithiothreitol is formulated into a 1M solution with ultrapure water, aliquoted, and stored in a refrigerator at −20° C. • S2.6. 0.5 mM Jaktide Peptide substrate solution: it is dissolved in 50 mM HEPES to 0.5 mM, aliquoted, and stored in a refrigerator at −20° C. • S2.7. 0.5 mM IRStide Peptide substrate solution: it is dissolved in 50 mM HEPES to 0.5 mM, aliquoted, and stored in a refrigerator at −20° C. • S2.8. Assay Buffer: 20 mM HEPES buffer, pH 7.4, 10 mM magnesium chloride, 0.01% bovine serum albumin BSA, 0.0005% Tween-20, and a 1 mM dithiothreitol solution. • S2.9. Stop Buffer: 180 mM HEPES buffer, 20 mM ethylenediamine tetraacetic acid (EDTA), and 0.2% Coating Reagent 3. • S2.10. Separation Buffer: 100 mM HEPES buffer, 10 mM EDTA, 0.0005% Tween 20, 0.1% Coating Reagent 3, and 1% dimethyl sulfoxide. 3. Experimental Procedures • S3.1. Preparation of compound plate
(§5) The compound is dissolved in dimethyl sulfoxide to 10 mM, a certain volume is taken and diluted to 0.6 mM, 10 μl of the diluted 0.6 mM solution is taken and added into a 384 microplate or 1:3 serial dilution, with a total of 8 concentration points. • S3.2. Compound layout
(§6) • positive control (HPE1): Ref1, final concentration: 10 μM • positive control (HPE1): Ref2, final concentration: 10 μM • negative control (ZPE): DMSO, with a final concentration of 1.6% • Compound: the highest final concentration at 10 μM, 1:3 serial dilution, with 8 concentration points and in duplicates. 4. Experimental operation steps • S4.1. the experimental plate was added with 250 nl of the compound per well with ECHO, and centrifuged at 1,000 rpm for 1 minute; • S4.2. the precipitate was added with 5 μl of the experimental buffer, and shaken for several seconds to fully dissolve the compound; • S4.3. the solution was added with 5 μl of a 3× substrate solution, as well as 5 μl of a 3× kinase solution, and centrifuged at 800 rpm for 1 minute; • S4.4. The final concentrations of JAK1, JAK2, JAK3 and Tyk2 kinases in the reaction system are 20, 1, 1 and 1 nM, respectively. • S4.5. the reaction system is incubated at room temperature, wherein the incubation time of each kinase is different, and there are differences in incubation time of different batches of kinases. • S4.6. When the reaction reaches 20%-30%, the reaction system is added with 15 μl of the stop buffer to terminate the reaction, and centrifuged at 1,000 rpm for 2 minutes. • S4.7. The precipitate was placed onto a EZ Reader for plate reading. • S4.8. […]

[4] = target: T1, JAK3 (Homo sapiens, UniProt P52333); assay: Inhibition of JAK kinase activity, EZ Reader microfluidic phosphorylation of peptide substrate: JAK3; settings: JAK3 kinase 1 nM; highest final concentration 10 μM, 1:3 serial dilution, 8 points, duplicates
T1 sequence (P52333 1-1124): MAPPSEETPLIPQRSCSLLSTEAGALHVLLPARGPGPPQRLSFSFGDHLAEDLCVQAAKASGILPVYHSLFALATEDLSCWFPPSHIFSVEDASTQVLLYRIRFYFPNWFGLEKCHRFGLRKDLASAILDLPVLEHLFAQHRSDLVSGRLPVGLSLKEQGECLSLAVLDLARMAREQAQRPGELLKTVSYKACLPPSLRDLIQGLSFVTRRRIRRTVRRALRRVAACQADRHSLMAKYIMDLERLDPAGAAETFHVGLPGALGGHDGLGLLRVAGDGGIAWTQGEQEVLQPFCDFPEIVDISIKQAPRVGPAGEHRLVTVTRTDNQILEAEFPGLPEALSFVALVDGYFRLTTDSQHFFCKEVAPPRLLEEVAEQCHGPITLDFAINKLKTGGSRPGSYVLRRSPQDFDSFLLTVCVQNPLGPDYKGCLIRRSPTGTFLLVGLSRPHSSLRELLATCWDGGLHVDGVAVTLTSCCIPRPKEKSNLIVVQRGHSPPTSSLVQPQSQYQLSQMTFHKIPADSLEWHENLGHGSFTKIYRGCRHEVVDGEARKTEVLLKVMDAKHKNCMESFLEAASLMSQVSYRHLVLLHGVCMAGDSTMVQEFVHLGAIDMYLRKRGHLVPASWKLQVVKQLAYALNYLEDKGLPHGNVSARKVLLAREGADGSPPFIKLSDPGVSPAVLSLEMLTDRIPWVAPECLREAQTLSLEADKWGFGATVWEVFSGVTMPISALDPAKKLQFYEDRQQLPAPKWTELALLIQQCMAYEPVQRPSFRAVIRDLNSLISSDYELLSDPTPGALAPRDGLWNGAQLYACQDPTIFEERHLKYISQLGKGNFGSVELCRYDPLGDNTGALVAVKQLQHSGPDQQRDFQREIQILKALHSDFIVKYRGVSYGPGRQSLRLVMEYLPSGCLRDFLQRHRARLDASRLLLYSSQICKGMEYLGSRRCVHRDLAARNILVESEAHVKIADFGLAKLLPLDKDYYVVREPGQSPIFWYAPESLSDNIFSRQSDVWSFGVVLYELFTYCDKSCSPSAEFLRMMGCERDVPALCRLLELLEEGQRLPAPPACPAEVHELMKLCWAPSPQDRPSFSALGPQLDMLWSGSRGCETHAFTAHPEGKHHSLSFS
Description: as §2, §3, §4, §5, §6

Chain of Tyk2 (P29597 whole entry): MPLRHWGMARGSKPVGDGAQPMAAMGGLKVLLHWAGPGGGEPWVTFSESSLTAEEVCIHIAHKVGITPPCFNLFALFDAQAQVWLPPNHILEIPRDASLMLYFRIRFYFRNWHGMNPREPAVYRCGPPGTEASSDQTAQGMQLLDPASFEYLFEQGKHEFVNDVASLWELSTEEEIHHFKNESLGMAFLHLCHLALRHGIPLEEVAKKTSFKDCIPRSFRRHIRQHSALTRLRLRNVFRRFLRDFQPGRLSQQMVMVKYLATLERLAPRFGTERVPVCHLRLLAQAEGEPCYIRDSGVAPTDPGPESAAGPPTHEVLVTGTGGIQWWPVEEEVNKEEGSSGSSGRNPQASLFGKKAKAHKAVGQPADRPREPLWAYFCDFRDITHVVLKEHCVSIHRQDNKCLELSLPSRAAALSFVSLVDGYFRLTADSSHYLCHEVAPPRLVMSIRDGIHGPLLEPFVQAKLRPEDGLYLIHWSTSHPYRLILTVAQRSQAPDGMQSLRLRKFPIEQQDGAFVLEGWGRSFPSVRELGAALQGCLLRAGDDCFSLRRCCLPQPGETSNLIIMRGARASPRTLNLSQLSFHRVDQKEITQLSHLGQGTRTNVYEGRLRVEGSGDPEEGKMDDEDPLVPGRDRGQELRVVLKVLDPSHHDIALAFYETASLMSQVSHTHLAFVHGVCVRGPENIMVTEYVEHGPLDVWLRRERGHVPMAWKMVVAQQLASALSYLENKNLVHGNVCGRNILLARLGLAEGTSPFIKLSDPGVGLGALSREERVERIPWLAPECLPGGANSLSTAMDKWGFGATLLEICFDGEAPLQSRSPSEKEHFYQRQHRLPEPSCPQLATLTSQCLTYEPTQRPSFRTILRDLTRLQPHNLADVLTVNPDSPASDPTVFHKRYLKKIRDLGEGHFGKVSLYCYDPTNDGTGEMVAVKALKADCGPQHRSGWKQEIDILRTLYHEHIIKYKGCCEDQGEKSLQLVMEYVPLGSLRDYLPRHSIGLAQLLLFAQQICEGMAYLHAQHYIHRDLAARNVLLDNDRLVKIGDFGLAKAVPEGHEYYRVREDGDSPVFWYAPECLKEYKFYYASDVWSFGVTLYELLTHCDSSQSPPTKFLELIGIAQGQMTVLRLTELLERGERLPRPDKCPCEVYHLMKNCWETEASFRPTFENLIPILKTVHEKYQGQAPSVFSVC

Row | Structure (SMILES) | IC50 [1] [µM] | IC50 [2] [µM] | IC50 [3] [µM] | IC50 [4] [µM]
1 | Cn1cc(Nc2nccc(-c3cnn(C4CN(C(=O)C5CC5(F)F)C4)c3)n2)cn1 (centres unmarked) [TDM-180668, (2,2-difluorocyclopropyl)(3-(4-(2-((1-methyl-1H-pyrazol-4-yl)amino)pyrimidin-4-yl)-1H-pyrazol-1-yl)azetidin-1-yl)ketone] | ≥ 10 | ≥ 10 | ≥ 10 | ≥ 10
2 | Cn1cc(Nc2nccc(-c3cnn(C4CN(C(=O)CO)C4)c3)n2)cn1 [TDM-180672, 2-hydroxy-1-(3(4-(2-((1-methyl-1H-pyrazol-4-yl)amino)pyrimidin-4-yl)-1H-pyrazol-1-yl)azetidin-1-yl)ethanone] | ≥ 10 | ≥ 10 | ≥ 10 | ≥ 10
3 | Cn1cc(Nc2nccc(-c3cnn(C4CCN(C(=O)C5CC5)CC4)c3)n2)cn1 [TDM-180673, cyclopropyl(4-(4-(2-((1-methyl-1H-pyrazol-4-yl)amino)pyrimidin-4-yl)-1H-pyrazol-1-yl)piperidin-1-yl)ketone] | ≥ 10 | ≥ 10 | ≥ 10 | ≥ 10
4 | CCCS(=O)(=O)N1CCC(n2cc(-c3ccnc(Nc4cnn(C)c4)n3)cn2)CC1 [TDM-180675, N-(1-methyl-1H-pyrazol-4-yl)-4-(1-(1-(propylsulfonyl)piperidin-4-yl)-1H-pyrazol-4-yl)pyrimidin-2-amine] | ≥ 10 | ≥ 10 | 1 to 10 | ≥ 10
5 | CCCC(=O)N1CCC(n2cc(-c3ccnc(Nc4cnn(C)c4)n3)cn2)CC1 [TDM-180677, 1-(4-(4-(2-((1-methyl-1H-pyrazol-4-yl)amino)pyrimidin-4-yl)-1H-pyrazol-1-yl)piperidin-1-yl)butan-1-one] | ≥ 10 | ≥ 10 | ≥ 10 | ≥ 10
6 | Cn1cc(Nc2nccc(-c3cnn(C4CCN(C(=O)CC#N)CC4)c3)n2)cn1 [TDM-180680, 3-(4-(4-(2-((1-methyl-1H-pyrazol-4-yl)amino)pyrimidin-4-yl)-1H-pyrazol-1-yl)piperidin-1-yl)3-oxopropanenitrile] | ≥ 10 | ≥ 10 | ≥ 10 | ≥ 10

Next, values leading:

Row | IC50 [1] [µM] | IC50 [2] [µM] | IC50 [3] [µM] | IC50 [4] [µM] | Structure (SMILES)
7 | ≥ 10 | ≥ 10 | ≥ 10 | ≥ 10 | Cn1cc(Nc2nccc(-c3cnn(C4CN(C(=O)CC(F)(F)F)C4)c3)n2)cn1 [TDM-180669, 3,3,3-trifluoro-1-(3-(4-(2-((1-methyl-1H-pyrazol-4-yl)amino)pyrimidin-4-yl)-1H-pyrazol-1-yl)azetidin-yl)propan-1-one]
8 | ≥ 10 | ≥ 10 | ≥ 10 | ≥ 10 | CCCC(=O)N1CC(n2cc(-c3ccnc(Nc4cnn(C)c4)n3)cn2)C1 [TDM-180670]
9 | ≥ 10 | ≥ 10 | ≥ 10 | ≥ 10 | Cn1cc(Nc2nccc(-c3cnn(C4CN(C(=O)CC#N)C4)c3)n2)cn1 [TDM-180671, 3-(3-(4-(2-((1-methyl-1H-pyrazol-4-yl)amino)pyrimidin-4-yl)-1H-pyrazol-1-yl)azetidin-1-yl)-3-oxopropanenitrile]
10 | 1 to 10 | ≥ 10 | 1 to 10 | ≥ 10 | CCS(=O)(=O)N1CCC(n2cc(-c3ccnc(Nc4cnn(C)c4)n3)cn2)CC1 [TDM-180674, 4-(1-(1-(ethylsulfonyl)piperidin-4-yl)-1H-pyrazol-4-yl)-N-(1-methyl-1H-pyrazol-4-yl)pyrimidin-2-amine]
11 | ≥ 10 | ≥ 10 | ≥ 10 | ≥ 10 | CCC(=O)N1CCC(n2cc(-c3ccnc(Nc4cnn(C)c4)n3)cn2)CC1 [TDM-180676, 1-(4-(4-(2-((1-methyl-1H-pyrazol-4-yl)amino)pyrimidin-4-yl)-1H-pyrazol-1-yl)piperidin-1-yl)propan-1-one]
12 | ≥ 10 | ≥ 10 | ≥ 10 | ≥ 10 | Cn1cc(Nc2nccc(-c3cnn(C4CCN(C(=O)CC(F)(F)F)CC4)c3)n2)cn1 [TDM-180678, 3,3,3-trifluoro-1-(4-(4-(2-((1-methyl-1H-pyrazol-4-yl)amino)pyrimidin-4-yl)-1H-pyrazol-1-yl)piperidin-1-yl)propan-1-one]
13 | ≥ 10 | ≥ 10 | ≥ 10 | ≥ 10 | Cn1cc(Nc2nccc(-c3cnn(C4CCN(C(=O)C5CC5(F)F)CC4)c3)n2)cn1 (centres unmarked) [TDM-180679, (2,2-difluorocyclopropyl)(4-(4-(2-((1-methyl-1H-pyrazol-4-yl)amino)pyrimidin-4-yl)-1H-pyrazol-1-yl)piperidin-1-yl)ketone]
14 | ≥ 10 | ≥ 10 | ≥ 10 | ≥ 10 | Cn1cc(Nc2nccc(-c3cnn(C4CCN(C(=O)CO)CC4)c3)n2)cn1 [TDM-180681, 2-hydroxy-1-(4-(4-(2-((1-methyl-1H-pyrazol-4-yl)amino)pyrimidin-4-yl)-1H-pyrazol-1-yl)piperidin-1-yl)ethanone]
